The values below come from article PMC13229503, “Dissecting mechanisms of ligand binding and conformational changes in the glutamine-binding protein” (eLife, 2026).

Test [1] deals with T1, GlnBP(111 C-192C) (Escherichia coli, UniProt P0AEQ3, G214C/V133C).
T1 construct: made in house; host or cells: E. coli BL21-pLysS
The test is described as follows: ITC of ligand binding to refolded, unlabeled GlnBP(111C-192C). As for the experimental part: (§1) The ITC measurements were performed in a MicroCal PEAQ-ITC isothermal titration calorimeter (Malvern Instruments). The prediction ITC software ‘MicroCal PEAQ-ITC Control’ was employed for designing and conducting the experiments. Once the Kd value and the binding stoichiometry (N) were assigned as predefined values, the concentration of both the protein and the titrant (ligand) stock solutions could be calculated by the ‘design-experiment’ function on the software to get an optimal sigmoidal one-site binding curve. GlnBP concentration was assessed using the Nanophotometer (N60 Touch, Implen GmbH) with at least three reading repeats to get accurate determinations of concentration values. For all ITC measurements, the temperature was set at 25 °C with stirring speed at 750 rev/min. The GlnBPs solution (10 μM in PBS buffer pH 7.4, 300 μL) was manually loaded into the sample cell. The titrant (L-glutamine, 100 μM in PBS buffer, pH 7.4) was automatically loaded into the titration syringe and injected in the sample cell with a titration speed of 2 μL every 150 s and a total of 19 injections. As a control experiment, L-glutamine was titrated into the sample cell containing PBS buffer without GlnBPs. All the titration data were analyzed using the MicroCal PEAQ-ITC Analysis Software.

A further test addresses T2, GlnBP(59 C-130C) (Escherichia coli, UniProt P0AEQ3, T152C/T81C).
T2 construct: made in house; host or cells: E. coli BL21-pLysS
The test is described as follows: ITC of ligand binding to refolded, unlabeled GlnBP(59C-130C). The protocol: as §1

Test [2] concerns the target T1, GlnBP(111 C-192C). The test can be described thus: Diffusion-based smFRET (µsALEX) ligand titration of doubly-labeled GlnBP(111C-192C). It counts as binding. Particulars: millimolar ligand, GlnBP(111C-192C) and GlnBP(59C-130C), AF555/AF647. The protocol: The refolded GlnBP(111 C-192C) and GlnBP(59 C-130C) variants were labeled with commercial maleimide derivatives of AF555/AF647 or ATTO 532/ATTO 643 ([Gebhardt et al., 2021]), and then purified by SEC. […] First, the His-tagged protein was incubated in 10 mM DTT in PBS buffer for 30 min to reduce all oxidized cysteine residues. Subsequently, the protein was diluted 10 times with PBS buffer and immobilized on a Nickel Sepharose 6 Fast Flow resin (GE Healthcare). The resin was washed extensively with milliQ water followed by PBS buffer pH 7.4. To remove the excess of DTT, the resin was washed with PBS buffer. […]
Single-molecule μsALEX experiments were carried out at room temperature on a custom-built confocal microscope. […] In general, the 532 and 640 nm diode lasers operated at 60 and 25 μW, respectively (measured at the back aperture of the objective), unless stated otherwise. Fluorescence light was collected by the same objective, focused onto a 50 μm pinhole and separated into two spectral channels (donor and acceptor fluorescence) by a dichroic beamsplitter (H643 LPXR, AHF, Germany). Fluorescence emission was collected by two avalanche photodiodes (SPCM-AQRH-64, Excelitas) after additional filtering (donor channel: BrightLine HC 582/75 and acceptor channel: Longpass 647 LP Edge Basic, both from Semrock, USA). […]

The subject of test [3] is GlnBP. Particulars: cited from earlier work.
The subject of test [4] is GlnBP. Further details: method as in Berntsson et al., 2010. Particulars: numerical fits of stopped-flow relaxation curves, Gln:GlnBP 1:1 and 2:1; ref Berntsson et al., 2010; cited from earlier work.

Where two headings read alike, the source gives them in different places.

T1 sequence (P0AEQ3 23-248 V133C/G214C): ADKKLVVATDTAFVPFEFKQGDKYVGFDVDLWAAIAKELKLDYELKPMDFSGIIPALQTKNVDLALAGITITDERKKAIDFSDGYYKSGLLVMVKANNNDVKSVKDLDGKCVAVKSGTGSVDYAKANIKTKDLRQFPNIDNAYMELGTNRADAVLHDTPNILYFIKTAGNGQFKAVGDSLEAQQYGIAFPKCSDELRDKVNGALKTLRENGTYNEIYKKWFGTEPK
T2 sequence (P0AEQ3 23-248 T81C/T152C): as the sequence (P0AEQ3 23-248 V133C/G214C) above, with T59C, C111V, T130C, C192G counted along it

As usually defined, the Kd is a measure of binding affinity in units of concentration. A low value points to higher affinity. Turning to `N=C(N)NCCC[C@H](N)C(=O)O` [L-Arginine], the Kd was 421 ± 292 µM at GlnBP(111 C-192C) [1] and 737 ± 133 µM at GlnBP(59 C-130C). Moreover, on GlnBP(111 C-192C) [2], the “ligand-induced FRET shift (conformational change)” value is recorded as “hardly any FRET shifts”. In the test with GlnBP [3] (arginine, ref Chen et al., 2020), the affinity result is “millimolar affinity”.
`NC(=O)CC[C@H](N)C(=O)O` [L-glutamine]: the effective on-rate constant result in the test with GlnBP [4] was “about 10^8 M^–1s^–1”. Moreover, the affinity result with GlnBP [3] (L-glutamine, ref Pistolesi and Tjandra, 2012, Su et al., 2007) was “sub-micromolar affinity”.
